Test results published in patent publication US8440666B2, “Pyridazinone compounds and P2X7 receptor inhibitors” (Nissan Chemical Industries, Ltd., priority 2007, dated 2013).
Counter-ions that a name gives are not always drawn.

What follows are molecules tested against T1, Human P2X7 (hP2X7) receptor (Homo sapiens, UniProt Q99572) (assay: Dye assay: BzATP-induced Yo-Pro-1 uptake in HEK293 cells stably expressing hP2X7). Details: BzATP 0.1 mM, Yo-Pro-1 2 μM, 30 min pre-treatment, 90 min incubation.
T1 construct: myc-His (from the pcDNA3.1/myc-HisA vector); expressed in transfected cells
T1 sequence (Q99572 1-595): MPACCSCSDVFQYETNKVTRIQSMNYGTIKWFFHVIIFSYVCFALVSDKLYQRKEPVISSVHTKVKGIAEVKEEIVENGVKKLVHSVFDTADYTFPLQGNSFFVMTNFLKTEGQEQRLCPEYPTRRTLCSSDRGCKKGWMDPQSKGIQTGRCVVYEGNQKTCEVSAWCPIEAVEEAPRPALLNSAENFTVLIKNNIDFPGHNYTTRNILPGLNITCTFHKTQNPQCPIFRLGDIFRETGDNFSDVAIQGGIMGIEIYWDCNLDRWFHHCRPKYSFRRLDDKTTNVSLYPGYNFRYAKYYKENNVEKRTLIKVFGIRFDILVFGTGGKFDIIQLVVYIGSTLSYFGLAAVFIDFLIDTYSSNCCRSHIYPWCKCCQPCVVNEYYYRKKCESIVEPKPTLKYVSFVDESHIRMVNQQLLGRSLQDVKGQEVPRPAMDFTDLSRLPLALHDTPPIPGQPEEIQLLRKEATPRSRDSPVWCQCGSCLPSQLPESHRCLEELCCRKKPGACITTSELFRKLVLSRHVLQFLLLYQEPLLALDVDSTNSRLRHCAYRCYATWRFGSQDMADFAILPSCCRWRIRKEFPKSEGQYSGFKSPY
Format: cell-based
Description: Human P2X7 (hP2×7) was cloned from a normal human brain total RNA library by reverse transcription (using SuperScript II (Invitrogen)) and PCR (using KOD-plus-(TOYOBO)). PCR primers were designed according to hP2X7 sequence registered in GENBANK with a putative amino acid sequence consisting of 595 amino acid residues. The PCR fragments were inserted into pcDNA3.1/myc-HisA vector (Invitrogen) and sequenced for confirmation.
HEK293 cells were transfected with hP2×7/pcDNA3.1/myc-HisA by lipofection, and 1 day later, the cells were treated with 1 mg/mL G418, and resistant cells were selected by appropriately dilution. The resistant cells were cloned by reseeding at a low density.
P2X7 receptor antagonists were screened by a dye uptake assay using HEK293 cells stably expressing hP2×7. Cells were plated on a type I collagen-coated black/clear bottom 96-well plate at 20000 cells/well and a day later, treated with varying concentrations of various test compounds for 30 minutes, then treated with a dye (Yo-Pro-1) (final concentration 2 μM) and BzATP (final concentration 0.1 mM) and incubated for 90 minutes. Then, the fluorescence (indicating the BzATP-induced Yo-Pro-1 uptake mediated by the P2X7 receptor) was measured with a microplate reader (excitation wavelength: 485 nm, emission wavelength: 535 nm). The % inhibition rates were calculated and plotted against the logarithms of the concentrations to determine IC50.

Row | IC50 [nM] | Compound
1 | 42 | C[C@@H]1[C@H]2C[C@@H](C[C@H]1Nc1cnn(CC(=O)NCC3CCNC=C3S(C)(=O)=O)c(=O)c1Cl)C2(C)C (stereo partly drawn) [compound 447]
2 | 1.9 | COc1nnccc1C(C)NC(=O)Cn1ncc(N[C@@H]2C[C@@H]3C[C@H]([C@H]2C)C3(C)C)c(Cl)c1=O (stereo partly drawn) [compound 441]

Same assay, conditions: BzATP (0.1 mM)-induced Yo-Pro-1 uptake, compounds 30 min pre-treatment, 90 min incubation

Row | Compound | IC50 [nM]
3 | C[C@@H]1[C@H]2C[C@@H](C[C@H]1Nc1cnn(CC(=O)NC(c3ccccc3)c3ccncc3)c(=O)c1Br)C2(C)C (stereo partly drawn) [compound 169] | 300
4 | C[C@@H]1[C@H]2C[C@@H](C[C@H]1Nc1cnn(CC(=O)NC3CC3)c(=O)c1Br)C2(C)C [compound 19] | 38
5 | Cc1c(N[C@@H]2C[C@@H]3C[C@H]([C@H]2C)C3(C)C)cnn(CC(=O)NCc2ccncc2)c1=O [Synthetic Example 154, 2-{5-Methyl-6-oxo-4-[(1R,2R,3R,5S)-2,6,6-trimethylbicyclo[3.1.1]hept-3-ylamino]pyridazin-1(6H)-yl}-N-(pyridin-4-ylmethyl)acetamide] | 22
6 | C[C@@H]1[C@H]2C[C@@H](C[C@H]1Nc1c(O)nn(CC(=O)NCc3ccncc3)c(=O)c1Cl)C2(C)C [Synthetic Example 390, 2-[5-Chloro-3-hydroxy-6-oxo-4-{[(1R,2R,3R,5S)-2,6,6-trimethylbicyclo[3.1.1]hept-3-yl]amino}pyridazin-1(6H)-yl]-N-(pyridin-4-ylmethyl)acetamide Hydrochloride] | 270
7 | C[C@@H]1[C@H]2C[C@@H](C[C@H]1Nc1cnn(CC(=O)N/C(=N/O)c3ccncc3)c(=O)c1Br)C2(C)C [compound 172] | 310
8 | COc1cc(CNC(=O)Cn2ncc(N[C@@H]3C[C@@H]4C[C@H]([C@H]3C)C4(C)C)c(Br)c2=O)on1 [compound 100] | 54
9 | C[C@@H]1[C@H]2C[C@@H](C[C@H]1Nc1cnn(CC(=O)NCc3ccc(C(F)(F)F)c(F)c3)c(=O)c1Br)C2(C)C [compound 183] | 230
10 | C[C@@H]1[C@H]2C[C@@H](C[C@H]1Nc1cnn(CC(=S)NCc3ccncc3)c(=O)c1Br)C2(C)C [Synthetic Example 156, 2-{5-Bromo-6-oxo-4-[(1R,2R,3R,5S)-2,6,6-trimethylbicyclo[3.1.1]hept-3-ylamino]pyridazin-1(6H)-yl}-N-(pyridin-4-ylmethyl)ethanethioamide] | 24
11 | C[C@@H]1[C@H]2C[C@@H](C[C@H]1Nc1cnn(C(F)C(=O)NCc3ccncc3)c(=O)c1Br)C2(C)C (stereo partly drawn) [Synthetic Example 405, [5-Bromo-6-oxo-4-{[(1R,2R,3R,5S)-2,6,6-trimethylbicyclo[3.1.1]hept-3-yl]amino}pyridazin-1(6H)-yl]-2-fluoro-N-(pyridin-4-ylmethyl)acetamide] | 21
12 | CC(NC(=O)Cn1ncc(N[C@@H]2C[C@@H]3C[C@H]([C@H]2C)C3(C)C)c(Br)c1=O)c1ccccc1 (stereo partly drawn) [compound 23] | 34
13 | CSc1c(N[C@@H]2C[C@@H]3C[C@H]([C@H]2C)C3(C)C)cnn(CC(=O)NCc2ccncc2)c1=O [Synthetic Example 146] | 70
14 | C[C@@H]1[C@H]2C[C@@H](C[C@H]1Nc1cnn(CC(=O)NC(C#N)c3ccccc3)c(=O)c1Br)C2(C)C (stereo partly drawn) [compound 190] | 54
15 | C[C@@H]1[C@H]2C[C@@H](C[C@H]1Nc1cnn(CC(=O)Nc3cccc([N+](=O)[O-])c3)c(=O)c1Br)C2(C)C [compound 79] | 46
16 | C[C@@H]1[C@H]2C[C@@H](C[C@H]1Nc1cnn(CC(=O)NCc3cc[n+]([O-])cc3)c(=O)c1Br)C2(C)C [Synthetic Example 158, 4-[(2-{5-Bromo-6-oxo-4-[(1R,2R,3R,5S)-2,6,6-trimethylbicyclo[3.1.1]hept-3-ylamino]pyridazin-1(6H)-yl}acetamido)methyl]pyridine 1-oxide] | 45
17 | CC(NC(=O)Cn1ncc(NC2CC3CC(C2C)C3(C)C)c(Br)c1=O)c1ccnnc1 (stereo not drawn) [compound 220] | 4.2
18 | CC(C)NC(=O)Cn1ncc(N[C@@H]2C[C@@H]3C[C@H]([C@H]2C)C3(C)C)c(Br)c1=O [compound 2] | 51
19 | C[C@@H]1[C@H]2C[C@@H](C[C@H]1Nc1cnn(CC(=O)NCc3ccccc3N(C)C)c(=O)c1Cl)C2(C)C [compound 247] | 32
20 | CC(C(=O)NCc1ccncc1)n1ncc(N[C@@H]2C[C@@H]3C[C@H]([C@H]2C)C3(C)C)c(Br)c1=O (stereo partly drawn) [Synthetic Example 46, 2-{5-Bromo-6-oxo-4-[(1R,2R,3R,5S)-2,6,6-trimethylbicyclo[3.1.1]hept-3-ylamino]pyridazin-1(6H)-yl}-N-(pyridin-4-ylmethyl)propanamide] | 14
21 | CC(NC(=O)Cn1ncc(N[C@@H]2C[C@@H]3C[C@H]([C@H]2C)C3(C)C)c(Br)c1=O)c1ccc(F)cc1 (stereo partly drawn) [compound 178] | 30
22 | CONC(=O)Cn1ncc(N[C@@H]2C[C@@H]3C[C@H]([C@H]2C)C3(C)C)c(Br)c1=O [compound 202] | 140
23 | O=C(Cn1ncc(SC23CC4CC(CC(C4)C2)C3)c(Br)c1=O)NCc1ccncc1 [Synthetic Example 430, 2-[5-Bromo-6-oxo-4-(tricyclo[3.3.1.1^3,7]dec-1-ylsulfanyl)pyridazin-1-(6H)-yl]-N-(pyridin-4-ylmethyl)acetamide] | 58
24 | O=C(Cn1ncc(NC23CC4CC(CC(C4)C2)C3)c(Br)c1=O)NCc1ccncc1 [compound 51] | 16
25 | COc1cc(OC)nc(Cn2ncc(N[C@@H]3C[C@@H]4C[C@H]([C@H]3C)C4(C)C)c(Br)c2=O)n1 [compound 89] | 35
26 | C[C@@H]1[C@H]2C[C@@H](C[C@H]1Nc1cnn(CC(=O)NCc3ccnc(Cl)c3)c(=O)c1Br)C2(C)C [compound 99] | 39

Second part, the molecule after the results:

Row | IC50 [nM] | Compound
27 | 18 | Cc1cnccc1CNC(=O)Cn1ncc(N[C@@H]2C[C@@H]3C[C@@H](C3(C)C)[C@]2(C)O)c(Cl)c1=O [compound 361]
28 | 5 | C[C@@H](NC(=O)Cn1ncc(NC23CC4CC(CC2C4)C3)c(Cl)c1=O)c1ccncc1 [compound 347]
29 | 68 | Cc1cc(NC(=O)Cn2ncc(N[C@@H]3C[C@@H]4C[C@H]([C@H]3C)C4(C)C)c(Cl)c2=O)sn1 [compound 292]
30 | 190 | Cc1cncnc1CNC(=O)Cn1ncc(N[C@@H]2C[C@@H]3C[C@H]([C@H]2C)C3(C)C)c(Cl)c1=O [compound 281]
31 | 14 | C[C@@H]1[C@H]2C[C@@H](C[C@H]1Nc1cnn(CC(=O)N[C@@H](CO)c3ccccc3)c(=O)c1Cl)C2(C)C [compound 271]
32 | 5.3 | Cc1cnccc1CNC(=O)Cn1ncc(NC23CC4CC(CC2C4)C3)c(Cl)c1=O [compound 338]
33 | 8.2 | CCC(NC(=O)Cn1ncc(NC23CC4CC(CC2C4)C3)c(Cl)c1=O)c1ccncc1 (stereo not drawn) [compound 337]
34 | 3.4 | CC(NC(=O)Cn1ncc(N[C@@H]2C[C@@H]3C[C@@H](C3(C)C)[C@]2(C)O)c(Cl)c1=O)c1ccnnc1 (stereo partly drawn) [compound 364]
35 | 5.4 | COc1cnccc1CNC(=O)Cn1ncc(N[C@@H]2C[C@@H]3C[C@H]([C@H]2C)C3(C)C)c(Cl)c1=O [compound 294]
36 | 45 | CCC(NC(=O)Cn1ncc(NC23CC4CC(CC2C4)C3)c(Cl)c1=O)c1ccncn1 (stereo not drawn) [compound 351]
37 | 230 | C[C@@H]1[C@H]2C[C@@H](C[C@H]1Nc1cnn(CCS(=O)(=O)c3ccccc3)c(=O)c1Cl)C2(C)C [compound 308]
38 | 34 | CC1(C)[C@@H]2C[C@@H](Nc3cnn(CC(=O)NCc4ccncc4)c(=O)c3Br)[C@@](C)(O)[C@H]1C2 [compound 314]
39 | 27 | CCC(NC(=O)Cn1ncc(NC2CCCCCCC2)c(Br)c1=O)c1ccncc1 (stereo not drawn) [compound 355]
40 | 3 | CCC(NC(=O)Cn1ncc(N[C@@H]2C[C@@H]3C[C@H]([C@H]2C)C3(C)C)c(Cl)c1=O)c1ccnnc1 (stereo partly drawn) [compound 288]
41 | 38 | O=C(Cn1ncc(NC2CCCCCCC2)c(Br)c1=O)NCc1ccncc1 [compound 321]
42 | 13 | CCC(NC(=O)Cn1ncc(NC23CC4CC(CC2C4)C3)c(Br)c1=O)c1ccncc1 (stereo not drawn) [compound 335]
43 | 30 | C[C@@H]1[C@H]2C[C@@H](C[C@H]1Nc1cnn(CC(=O)N[C@H](CO)c3ccccc3)c(=O)c1Cl)C2(C)C [compound 270]
44 | 3 | CC(NC(=O)Cn1ncc(NC23CC4CC(CC(C4)C2)C3)c(Cl)c1=O)c1ccnnc1 (stereo not drawn) [compound 367]
45 | 230 | CCC(NC(=O)Cn1ncc(N[C@@H]2C[C@@H]3C[C@H]([C@H]2C)C3(C)C)cc1=O)c1ccncc1 (stereo partly drawn) [compound 295]
